Reference: patent US7354734B2, “Fungal proteins and nucleic acids encoding same” (priority 2003, dated 2008)
Several values for one entry are separate records, joined by “and”; a condition that tells them apart may be missing. Identical values can stand only once. Like-named read-outs stand apart in the source and are kept apart here. Where a SMILES comes first, the peptide text is derived from it. [ ]: non-standard residue; d: D form. The star is where a group is joined. Sta = CC(C)C[C@H](N)[C@@H](O)CC(=O)O; Isovaleryl = CC(C)CC(=O)*

Key:
[1] = molecular target: ruLAP2 (Trichophyton rubrum, UniProt Q5QHG6); assay type: biochemical; details: for effect of inhibitor on ruLAP2 activity: Leu-AMC 5 mM; for ruLAP2 activity as percentage of control reaction without any cation / ruLAP2 activity as percentage of control reaction without inhibitor: Leu-MCA substrate, 15 min pre-incubation
[2] = molecular target: fuLAP1 (Aspergillus fumigatus, UniProt Q5VJG6); assay: biochemical; assay type: biochemical; details: for effect of divalent cation on fuLAP1 activity: Leu-AMC, cations 0.5 mM and 1 mM; for fuLAP1 activity as percentage of control reaction without any cation / fuLAP1 activity as percentage of control reaction without inhibitor / remaining activity at 100 µM: Leu-MCA substrate, 15 min pre-incubation
[3] = molecular target: T1, pkLAP (microsomal LAP from porcine kidney) (Sus scrofa, UniProt P15145); assay: Effect of inhibitors and metallic cations on LAP activity (Leu-AMC); assay type: biochemical; details: for pkLAP activity as percentage of control reaction without any cation / pkLAP activity as percentage of control reaction without inhibitor / remaining activity at 100 µM: Leu-MCA substrate, 15 min pre-incubation; for effect of divalent cation on pkLAP activity: Leu-AMC, cations 0.5 mM and 1 mM; for effect of inhibitor on pkLAP activity: Leu-AMC 5 mM
T1 construct: purchased Sigma; host or cells: porcine kidney
T1 sequence (P15145 1-963): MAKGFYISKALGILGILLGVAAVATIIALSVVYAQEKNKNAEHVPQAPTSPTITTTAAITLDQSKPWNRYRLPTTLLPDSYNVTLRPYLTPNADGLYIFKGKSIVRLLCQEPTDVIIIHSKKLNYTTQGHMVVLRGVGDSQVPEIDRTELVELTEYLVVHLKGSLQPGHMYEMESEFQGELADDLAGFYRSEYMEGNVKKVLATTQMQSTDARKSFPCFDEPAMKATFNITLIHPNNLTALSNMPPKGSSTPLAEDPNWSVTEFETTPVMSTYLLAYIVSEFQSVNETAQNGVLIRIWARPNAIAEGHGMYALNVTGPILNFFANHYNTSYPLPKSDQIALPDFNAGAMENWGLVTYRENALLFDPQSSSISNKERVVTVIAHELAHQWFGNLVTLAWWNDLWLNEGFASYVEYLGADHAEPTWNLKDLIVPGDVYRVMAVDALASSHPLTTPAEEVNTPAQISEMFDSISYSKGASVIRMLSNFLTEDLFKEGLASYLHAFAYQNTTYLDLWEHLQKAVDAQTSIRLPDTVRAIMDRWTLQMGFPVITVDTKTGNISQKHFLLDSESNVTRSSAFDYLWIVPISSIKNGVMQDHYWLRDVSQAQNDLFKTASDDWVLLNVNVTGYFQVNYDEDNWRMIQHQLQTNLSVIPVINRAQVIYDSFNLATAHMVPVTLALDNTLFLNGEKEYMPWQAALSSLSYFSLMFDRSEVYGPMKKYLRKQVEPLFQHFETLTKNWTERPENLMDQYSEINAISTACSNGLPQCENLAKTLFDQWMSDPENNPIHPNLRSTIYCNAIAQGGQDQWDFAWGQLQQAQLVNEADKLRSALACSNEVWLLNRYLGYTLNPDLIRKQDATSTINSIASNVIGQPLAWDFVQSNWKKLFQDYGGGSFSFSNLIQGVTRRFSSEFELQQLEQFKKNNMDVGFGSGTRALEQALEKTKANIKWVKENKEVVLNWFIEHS

[4] = molecular target: ruLAP1 (Trichophyton rubrum, UniProt Q5QHG5); assay type: biochemical; details: for effect of inhibitor on ruLAP1 activity: Leu-AMC 5 mM
[5] = system: fuLAP2; assay type: biochemical, Aspergillus fumigatus; details: for effect of divalent cation on fuLAP2 activity: Leu-AMC, cations 0.5 mM and 1 mM; for effect of inhibitor on fuLAP2 activity: Leu-AMC 5 mM
[6] = cation salt 0.5 mM, Leu-MCA substrate, 15 min pre-incubation
[7] = cation salt 1 mM, Leu-MCA substrate, 15 min pre-incubation
[8] = inhibitor 100 μM, Leu-MCA substrate, 15 min pre-incubation
[9] = read-out: fuLAP1 activity as percentage of control reaction without inhibitor
[10] = read-out: pkLAP activity as percentage of control reaction without inhibitor
[11] = inhibitor 100 μM, read-out: fuLAP1 activity as percentage of control reaction without inhibitor
[12] = inhibitor 100 μM, read-out: pkLAP activity as percentage of control reaction without inhibitor
[13] = inhibitor 20 μM, Leu-MCA substrate, 15 min pre-incubation

Sequence of ruLAP1 (Q5QHG5 21-373): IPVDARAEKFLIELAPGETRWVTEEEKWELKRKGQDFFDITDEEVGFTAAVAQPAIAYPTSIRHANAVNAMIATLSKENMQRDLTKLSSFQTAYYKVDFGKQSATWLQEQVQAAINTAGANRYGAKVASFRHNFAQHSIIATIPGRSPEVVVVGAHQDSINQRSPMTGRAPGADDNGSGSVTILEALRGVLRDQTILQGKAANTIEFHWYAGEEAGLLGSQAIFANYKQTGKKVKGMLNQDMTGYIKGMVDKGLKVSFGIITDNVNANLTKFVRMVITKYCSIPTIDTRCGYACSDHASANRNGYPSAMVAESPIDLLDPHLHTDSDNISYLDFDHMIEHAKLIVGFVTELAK
Sequence of fuLAP1 (Q5VJG6 16-388): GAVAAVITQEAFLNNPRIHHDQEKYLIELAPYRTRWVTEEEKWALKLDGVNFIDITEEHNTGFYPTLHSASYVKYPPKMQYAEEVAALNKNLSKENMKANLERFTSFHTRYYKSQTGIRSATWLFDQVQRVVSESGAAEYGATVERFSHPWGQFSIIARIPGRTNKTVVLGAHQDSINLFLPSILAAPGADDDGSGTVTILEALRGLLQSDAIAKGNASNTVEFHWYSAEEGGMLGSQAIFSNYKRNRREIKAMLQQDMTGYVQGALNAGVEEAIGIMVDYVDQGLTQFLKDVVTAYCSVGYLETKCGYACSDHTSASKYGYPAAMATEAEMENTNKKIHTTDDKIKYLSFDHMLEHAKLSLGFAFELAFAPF
Sequence of ruLAP2 (Q5QHG6 20-495): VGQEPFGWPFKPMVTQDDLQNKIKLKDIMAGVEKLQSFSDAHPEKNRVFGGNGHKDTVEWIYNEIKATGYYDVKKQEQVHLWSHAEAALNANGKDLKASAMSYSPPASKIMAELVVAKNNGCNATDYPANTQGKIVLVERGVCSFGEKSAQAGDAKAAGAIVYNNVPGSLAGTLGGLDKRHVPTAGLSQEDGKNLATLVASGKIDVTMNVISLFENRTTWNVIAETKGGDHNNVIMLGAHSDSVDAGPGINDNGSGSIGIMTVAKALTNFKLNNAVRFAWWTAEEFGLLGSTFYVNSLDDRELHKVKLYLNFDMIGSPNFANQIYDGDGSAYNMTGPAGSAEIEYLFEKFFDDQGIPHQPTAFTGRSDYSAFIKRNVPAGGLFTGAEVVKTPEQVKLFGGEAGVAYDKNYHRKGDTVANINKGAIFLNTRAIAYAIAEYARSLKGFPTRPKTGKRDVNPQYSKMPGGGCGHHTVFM

Compound | effect of inhibitor on ruLAP2 activity [1] | fuLAP1 activity as percentage of control reaction without any cation ([2]; cation salt 0.5 mM) | fuLAP1 activity as percentage of control reaction without any cation ([2]; cation salt 1 mM) | pkLAP activity as percentage of control reaction without any cation ([3]; cation salt 0.5 mM) | pkLAP activity as percentage of control reaction without any cation ([3]; cation salt 1 mM) | ruLAP1 activity as percentage of control reaction without any cation [4] | ruLAP2 activity as percentage of control reaction without any cation ([1]; cation salt 0.5 mM) | ruLAP2 activity as percentage of control reaction without any cation ([1]; cation salt 1 mM) | fuLAP2 activity as percentage of control reaction without any cation [5, 6] | fuLAP2 activity as percentage of control reaction without any cation [5, 7] | effect of inhibitor on ruLAP1 activity [4] | further results
CC(C)C[C@H](NC(=O)[C@H]1O[C@@H]1C(=O)O)C(=O)NCCCCN=C(N)N (relative stereo) [E64, L-trans-epoxysuccinyl-leu-4-guanidinobutylamide] | blunted the activity |  |  |  |  |  |  |  |  |  |  | 
[Ca+2].[Cl-].[Cl-] [Ca^++, CaCl2] |  | 54.9% | 43.3% | 177.4% | 161.8% | 151.7% and 175.6% | 126.6% | 141.9% | 110.0% | 165.4% |  | effect of divalent cation on fuLAP1 activity [2]: inhibited; effect of divalent cation on fuLAP2 activity [5]: activated
[Cl-].[Cl-].[Co+2] [Co^++, CoCl2] |  | 104.3% | 96.5% | 876.1% | 899.8% | 210.2% and 202.1% | 591.2% | 789.7% | 378.0% | 662.7% |  | effect of divalent cation on ruLAP2 activity ([1]; Leu-AMC, cations 0.5 mM and 1 mM): highly activated; effect of divalent cation on fuLAP2 activity [5]: highly activated
[Cl][Cu][Cl] [Cu^++, CuCl2] |  | 25.8% | 17.0% | 1422.0% | 1092.4% |  | 50.9% | 34.7% | 68.9% | 73.6% |  | effect of divalent cation on pkLAP activity [3]: highly activated
CC(C)C[C@H](NC(=O)[C@H]1O[C@@H]1C(=O)O)C(=O)NCCCCN=C(N)N [E 64] |  |  |  |  |  |  |  |  |  |  |  | fuLAP1 activity as percentage of control reaction without inhibitor ([2]; inhibitor 100 μM): 190%; pkLAP activity as percentage of control reaction without inhibitor ([3]; inhibitor 100 μM): 93%; ruLAP1 activity as percentage of control reaction without inhibitor ([4]; 100 µM): 103%; ruLAP2 activity as percentage of control reaction without inhibitor ([1]; inhibitor 100 μM): 34%; fuLAP2 activity as percentage of control reaction without inhibitor [5, 8]: 71%
O=C(O)CN(CCN(CC(=O)O)CC(=O)O)CC(=O)O [EDTA] | more sensitive |  |  |  |  |  |  |  |  |  | more sensitive | effect of inhibitor on fuLAP1 activity [2]: more sensitive; remaining activity at 1000 µM [2, 9]: 19%; remaining activity at 5000 µM [2, 9]: 16%; remaining activity at 1000 µM [3, 10]: 68%; remaining activity at 5000 µM [3, 10]: 99%; fuLAP2 activity as percentage of control reaction without inhibitor [5]: 50% and 77%
CC(=O)N[C@@H](CC(C)C)C(=O)N[C@@H](CC(C)C)C(=O)N[C@H](C=O)CCCNC(=N)N [Leupeptin, leupeptin] | no clear inhibitory effects |  |  |  |  |  |  |  |  |  | no clear inhibitory effects | effect of inhibitor on fuLAP1 activity ([2]; Leu-AMC 5 mM): no clear inhibitory effects; remaining activity at 100 µM [2, 11]: 149%; effect of inhibitor on pkLAP activity [3]: no clear inhibitory effects; remaining activity at 100 µM [3, 12]: 86%; effect of inhibitor on fuLAP2 activity [5]: no clear inhibitory effects; fuLAP2 activity as percentage of control reaction without inhibitor [5, 8]: 61%
[Cl-].[Cl-].[Mg+2] [MgCl2] |  | 68.5% | 72.6% | 130.1% | 146.1% | 129.9% and 132.6% | 121.2% | 110.2% | 97.6% | 108.0% |  | 
[Cl][Mn][Cl] [Mn^++, MnCl2] |  | 25.9% | 28.4% | 157.6% | 165.8% | 120.7% and 105.2% | 77.5% | 86.8% | 84.3% | 140.2% |  | effect of divalent cation on fuLAP1 activity [2]: inhibited; effect of divalent cation on fuLAP2 activity [5]: activated
[Cl][Ni][Cl] [Ni, NiCl2] |  | 51.7% | 37.2% | 1187.7% | 1158.7% | 74.8% and 58.1% | 130.5% | 147.9% | 98.4% | 149.3% |  | effect of divalent cation on pkLAP activity [3]: highly activated
Cc1ccc(S(=O)(=O)N[C@@H](CCCCN)C(=O)CCl)cc1 [TLCK] | no clear inhibitory effects |  |  |  |  |  |  |  |  |  | no clear inhibitory effects | effect of inhibitor on fuLAP1 activity ([2]; Leu-AMC 5 mM): no clear inhibitory effects; fuLAP1 activity as percentage of control reaction without inhibitor ([2]; inhibitor 20 μM): 80%; effect of inhibitor on pkLAP activity [3]: no clear inhibitory effects; pkLAP activity as percentage of control reaction without inhibitor ([3]; inhibitor 20 μM): 113%; ruLAP1 activity as percentage of control reaction without inhibitor [4, 13]: 68%; ruLAP2 activity as percentage of control reaction without inhibitor ([1]; inhibitor 20 μM): 96%; effect of inhibitor on fuLAP2 activity [5]: no clear inhibitory effects; fuLAP2 activity as percentage of control reaction without inhibitor [5, 13]: 120%
CC(C)CC(=O)N[C@H](C(=O)N[C@H](C(=O)N[C@@H](CC(C)C)[C@@H](O)CC(=O)N[C@@H](C)C(=O)N[C@@H](CC(C)C)[C@@H](O)CC(=O)O)C(C)C)C(C)C [pepstatin, pepstatin A] (Isovaleryl-VV[Sta]A[Sta]-OH) |  |  |  |  |  |  |  |  |  |  | some sensitivity | effect of inhibitor on fuLAP1 activity ([2]; Leu-AMC 5 mM): some sensitivity; remaining activity at 100 µM [2, 11]: 14%; remaining activity at 100 µM [3, 12]: 64%; fuLAP2 activity as percentage of control reaction without inhibitor [5, 8]: 73%
